For 14 compounds, TGI results are on record in PubChem BioAssay (NCI).

Some test systems named below: ACHN renal; BT-549 breast; CAKI-1 renal; HCC-2998 colon; HCT-116 colon; HCT-15 colon; KM12 colon; M14 melanoma; OVCAR-8 ovarian; PC-3 prostate.
Holding throughout (test): NCI tumour cell line growth inhibition, 48 h

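1) Cells in 96-well plates. 2) Compound, 48 h, 5 concentrations. 3) Linear interpolation between surrounding doses. 4) Unreached endpoint = highest concentration. TGI: total growth inhibition.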

Turning to `c1ccc(/C(=N/Nc2ccncn2)c2ccccn2)cc1`, the TGI in the assay on ACHN renal is 88.1 µM; in the assay with BT-549 breast it was above 100 µM; with CAKI-1 renal, above 100 µM; with HCC-2998 colon, above 100 µM; in the assay on HCT-116 colon, above 100 µM; with HCT-15 colon it was above 100 µM. Also, the TGI is 93 µM in the assay with KM12 colon, 30.5 µM in the assay on M14 melanoma, 50.2 µM in the assay with OVCAR-8 ovarian and above 100 µM in the assay on PC-3 prostate.

In the case of `COc1ccc2cc(CNCCCCCCNCc3ccc4cc(OC)ccc4c3)ccc2c1`, the TGI in the assay with ACHN renal is 2.92 µM; in the assay with BT-549 breast, 3.14 µM; with CAKI-1 renal it was 2.71 µM; in the assay with HCC-2998 colon it was 0.277 µM; in the assay with HCT-116 colon, 0.324 µM; in the assay with HCT-15 colon it was 1.39 µM. In addition, the TGI in the assay with KM12 colon was 0.511 µM; in the assay on M14 melanoma, 0.315 µM; with OVCAR-8 ovarian, 1.15 µM; in the assay with PC-3 prostate, 0.918 µM.

For `CN(C)CCCNc1ccc2nnn3c4ccc(O)cc4c(=O)c1c23`, the TGI came to 13.5 µM in the assay with ACHN renal; 33.9 µM in the assay on BT-549 breast; 13.1 µM with CAKI-1 renal; 15.2 µM in the assay with HCC-2998 colon; 16 µM in the assay with HCT-116 colon; 19.7 µM in the assay on HCT-15 colon. The TGI in the assay on KM12 colon amounted to 13.5 µM; in the assay with M14 melanoma, 21 µM; with OVCAR-8 ovarian it was 17.6 µM; in the assay on PC-3 prostate, 17.5 µM.

On to `CCOP(=O)(OCC)/C(=C/c1cccs1)CC(C)=O`, for which the TGI with ACHN renal, with BT-549 breast, with CAKI-1 renal, with HCC-2998 colon, in the assay with HCT-116 colon and in the assay on HCT-15 colon was above 100 µM each time. Besides, the TGI with KM12 colon, in the assay with M14 melanoma, with OVCAR-8 ovarian and in the assay with PC-3 prostate was above 100 µM throughout.

Regarding `CC(C)(C)OC(=O)NCC(CNC(=O)OC(C)(C)C)c1nc(C(N)=O)cs1`, the TGI with ACHN renal, in the assay with BT-549 breast, in the assay on CAKI-1 renal, with HCC-2998 colon, with HCT-116 colon and in the assay with HCT-15 colon was above 100 µM each time. Moreover, the TGI with KM12 colon, in the assay with M14 melanoma, in the assay with OVCAR-8 ovarian and in the assay on PC-3 prostate was above 100 µM throughout.

Consider `O=C(O)COc1cc(-c2ccccc2)nc2cc(F)ccc12`, for which the TGI with ACHN renal, with BT-549 breast, in the assay with CAKI-1 renal, in the assay with HCC-2998 colon, in the assay on HCT-116 colon and in the assay with HCT-15 colon was above 100 µM in each case. The TGI in the assay with KM12 colon, in the assay with M14 melanoma, with OVCAR-8 ovarian and with PC-3 prostate was above 100 µM in each case.

`Nc1ccc(S(=O)(=O)Nc2nc3ccccc3nc2N2CCCCCC2)cc1`: the TGI was above 100 µM in the assay on ACHN renal; 28.2 µM with BT-549 breast; 82.7 µM in the assay with CAKI-1 renal; 33.4 µM in the assay on HCC-2998 colon; 33.2 µM with HCT-116 colon; 95.5 µM in the assay on HCT-15 colon. In addition, the TGI in the assay with KM12 colon, with M14 melanoma, with OVCAR-8 ovarian and with PC-3 prostate was above 100 µM each time.

Consider `O=C(Cc1ccc(Cl)c(Cl)c1)NCC1(N2CCCCC2)CCCCC1`, for which the TGI was above 100 µM in the assay on ACHN renal; above 100 µM in the assay with BT-549 breast; above 100 µM with CAKI-1 renal; 39.1 µM in the assay with HCC-2998 colon; above 100 µM in the assay on HCT-116 colon; above 100 µM in the assay with HCT-15 colon. The TGI was above 100 µM in the assay with KM12 colon, 34.4 µM in the assay on M14 melanoma, above 100 µM in the assay on OVCAR-8 ovarian and above 100 µM in the assay on PC-3 prostate.

Take `CCOC(=O)c1cc2c([N+](=O)[O-])c(N)ccc2s1`: the TGI in the assay with ACHN renal, in the assay on BT-549 breast, with CAKI-1 renal, in the assay with HCC-2998 colon, with HCT-116 colon and with HCT-15 colon was above 100 µM throughout. The TGI in the assay with KM12 colon, in the assay on M14 melanoma, with OVCAR-8 ovarian and with PC-3 prostate was above 100 µM throughout.

On to `N#Cc1cc2c(n(C3OC(CO)C(O)C(O)C3O)c1=S)CCCCCC2` (stereo not given), for which the TGI in the assay with ACHN renal, with BT-549 breast, with CAKI-1 renal, in the assay on HCC-2998 colon, in the assay with HCT-116 colon and in the assay with HCT-15 colon was above 100 µM throughout. The TGI in the assay with KM12 colon, in the assay on M14 melanoma, in the assay on OVCAR-8 ovarian and with PC-3 prostate was above 100 µM in each case.

As to `CC(C)C(C/C=C1\CC(CO)(COC(=O)C2CCCCC2)OC1=O)C(C)C` (stereo not given), the TGI with ACHN renal was found to be 32.3 µM; in the assay on BT-549 breast it was 47.2 µM; in the assay on CAKI-1 renal, 43.8 µM; with HCC-2998 colon, 65.1 µM; in the assay with HCT-116 colon it was 36.5 µM; with HCT-15 colon, 38.8 µM. For the same compound, the TGI with KM12 colon is 39.5 µM; with M14 melanoma, 48.4 µM; in the assay with OVCAR-8 ovarian, 35.8 µM; in the assay on PC-3 prostate, 37.2 µM.

As for `CC(=O)Nc1ccc(OC/C(N)=N/NC(=O)c2ccncc2)cc1`, the TGI in the assay with ACHN renal, with BT-549 breast, in the assay with CAKI-1 renal, with HCC-2998 colon, in the assay on HCT-116 colon and with HCT-15 colon was above 100 µM each time. Besides, the TGI in the assay on KM12 colon, in the assay on M14 melanoma, in the assay with OVCAR-8 ovarian and in the assay on PC-3 prostate was above 100 µM each time.

Consider `NNC(=O)C1(NC(=O)c2ccccc2)C(c2ccccc2)C(c2ccccc2)=NN1c1ccccc1` (stereo not given), for which the TGI is above 100 µM in the assay on ACHN renal; above 100 µM in the assay on BT-549 breast; 92 µM in the assay with CAKI-1 renal; above 100 µM with HCC-2998 colon; above 100 µM in the assay with HCT-116 colon; above 100 µM in the assay on HCT-15 colon. Moreover, the TGI is above 100 µM with KM12 colon, 54.9 µM in the assay on M14 melanoma, above 100 µM with OVCAR-8 ovarian and above 100 µM in the assay with PC-3 prostate.

Turning to `NCC(O)CSCc1ccc(Cl)cc1` (stereo not given), the TGI in the assay with ACHN renal, with BT-549 breast, in the assay on CAKI-1 renal, in the assay on HCC-2998 colon, in the assay on HCT-116 colon and in the assay on HCT-15 colon was above 100 µM in each case. The TGI in the assay with KM12 colon, in the assay with M14 melanoma, in the assay with OVCAR-8 ovarian and in the assay with PC-3 prostate was above 100 µM each time.
